Patent publication US4285940A, “Cephalosporin derivatives, and antibacterial drugs comprising said derivatives” (Eisai Co., Ltd., priority 1979, dated 1981)

What was measured:
[1] = system: Staphylococcus aureus 209P; test: MIC by standard agar dilution method of the Japan Society of Chemotherapy; assay type: cell-based; conditions: Mueller Hinton agar, 18 hours at 37° C., Examples 1, 2, 4 as sodium salts, Example 5 as free acid
Method: (§1) Minimal inhibitory concentration (MIC) was determined by the standard agar dilution method of the Japan Society of Chemotherapy.
(§2) The compounds described in Examples 1, 2 and 4 were dissolved in sterilized water; the compound described in Example 5 was dissolved in acetone-water (1:1); and the control compound, cephaloglycin, was dissolved in a 3% sodium hydrogen carbonate solution.
(§3) Serial two-fold dilutions were made from the above solutions.
(§4) One-ml aliquots of each dilution were mixed with 9 ml of Mueller Hinton agar in petri-dishes to make agar plates containing the compound at serially diluted concentrations. After agar hardened, plates were put in an incubator at 37° C. for 1.5-2 hours with the lids slightly open to evaporate acetone off the plates.
(§5) Test organisms were grown for 18 hours at 37° C. in Trypticase Soy broth and diluted in saline to approximately 10^6 colony forming units per ml. A loopful of each cell suspension was applied on the agar plate mentioned above and the plates were incubated for 18 hours at 37° C. before MIC was determined.
(§6) MIC values of the compounds described in Examples 1, 2 and 4 were determined as their sodium salts and the compound described in Example 5 was determined as a free carboxylic acid.

[2] = system: Escherichia coli NIHJ; test: as above; assay type: cell-based; conditions: Mueller Hinton agar, 18 hours at 37° C., Examples 1, 2, 4 as sodium salts, Example 5 as free acid
Method: as §1, §2, §3, §4, §5, §6

[3] = system: Proteus morganii EP-14; test: as above; assay type: cell-based; conditions: Morganella morganii, EP14, Mueller Hinton agar, 18 hours at 37° C., Examples 1, 2, 4 as sodium salts, Example 5 as free acid
Method: as §1, §2, §3, §4, §5, §6

[4] = system: Klebsiella pneumoniae EK-6; test: as above; assay type: cell-based; conditions: EK6, Mueller Hinton agar, 18 hours at 37° C., Examples 1, 2, 4 as sodium salts, Example 5 as free acid
Method: as §1, §2, §3, §4, §5, §6

[5] = system: Pseudomonas aeruginosa EP-172; test: as above; assay type: cell-based; conditions: EP172, Mueller Hinton agar, 18 hours at 37° C., Examples 1, 2, 4 as sodium salts, Example 5 as free acid
Method: as §1, §2, §3, §4, §5, §6

[6] = system: Serratia marcescens ES-75; test: as above; assay type: cell-based; conditions: ES75, Mueller Hinton agar, 18 hours at 37° C., Examples 1, 2, 4 as sodium salts, Example 5 as free acid
Method: as §1, §2, §3, §4, §5, §6

[7] = acute toxicity (mouse, oral administration); conditions: in vivo

| Structure (SMILES) | MIC [1] [mg/L] | MIC [2] [mg/L] | MIC [3] [mg/L] | MIC [4] [mg/L] | MIC [5] [mg/L] | MIC [6] [mg/L] | LD50 [7] [mg/kg] |
| --- | --- | --- | --- | --- | --- | --- | --- |
| CC(=O)OCC1=C(C(=O)O)N2C(=O)[C@@H](NC(=O)[C@H](N)c3ccccc3)[C@H]2SC1 [Cephaloglycin, cephaloglycin, reference compound] | 0.8 | 3.13 | 25 | 1.56 | 100 | 100 |  |
| CC(=O)OCC1=C(C(=O)O)N2C(=O)[C@@H](NC(=O)[C@H](NC(=O)c3coc4cc(OC(C)=O)c(OC(C)=O)cc4c3=O)c3ccc(O)cc3)[C@H]2SC1 [Example 2, 7β-[D-2-(6,7-Diacetoxychromone-3-carboxamido)-2-(4-hydroxyphenyl)acetamido]-3-acetoxymethyl-3-cephem-4-carboxylic acid] | 6.25 | 12.5 | 100 | 0.2 | 3.13 | 6.25 | > 5000 |
| CC(=O)OCC1=C(C(=O)O)N2C(=O)[C@@H](NC(=O)[C@H](NC(=O)c3coc4c(OC(C)=O)c(OC(C)=O)ccc4c3=O)c3ccc(O)cc3)[C@H]2SC1 [Example 5, 7β-[D-2-(7,8-Diacetoxychromone-3-carboxamido)-2-(4-hydroxyphenyl)acetamido]-3-acetoxymethyl-3-cephem-4-carboxylic acid] | 6.25 | 3.13 | 25 | 0.4 | 3.13 | 25 |  |
| CC(=O)OCC1=C(C(=O)O)N2C(=O)[C@@H](NC(=O)[C@H](NC(=O)c3coc4cc(O)c(O)cc4c3=O)c3ccc(O)cc3)[C@H]2SC1 [Example 1, 7β-[D-2-(6,7-Dihydroxychromone-3-carboxamido)-2-(4-hydroxyphenyl)acetamido]-3-acetoxymethyl-3-cephem-4-carboxylic acid] | 3.13 | 3.13 | 50 | 0.2 | 3.13 | 3.13 | > 5000 |
| CC(=O)OCC1=C(C(=O)O)N2C(=O)[C@@H](NC(=O)[C@H](NC(=O)c3coc4c(O)c(O)ccc4c3=O)c3ccc(O)cc3)[C@H]2SC1 [Example 4, 7β-[D-2-(7,8-Dihydroxychromone-3-carboxamido)-2-(4-hydroxyphenyl)acetamido]-3-acetoxymethyl-3-cephem-4-carboxylic acid] | 0.8 | 12.5 | 100 | 0.2 | 1.56 | 100 |  |
